What was measured:
[1] = system: weeds; test: Ex10 PRE greenhouse; assay type: in vivo; conditions: 28 DAT, weed and rate in the words
Description: Treatments 1-12 of 2,4-DC and aclonifen tank-mix combinations follow same rates listed above. […] Sulfentrazone (Spartan 4F® 39.6%) at 280 g ai/ha, pendimethalin (Prowl 3.3®EC, 37.4%) at 784 g ai/ha, or S-metolachlor (Dual II Magnum® 82.4%) at 1084 g ai/ha were applied as commercial standards. Treatments were replicated 3 times and flats were watered after planting but before the treatment and lightly watered after treatment application. Thereafter flats were watered and fertilized routinely. […] Shepherd's-purse was rated at 21 and 28 DAT only, due to delayed emergence.

[2] = system: Common cocklebur; test: Ex37 PRE 2,4-DC + atrazine, % control 28 DAT, Colby; assay type: in vivo, Xanthium strumarium
Description: (§1) S-metolachlor (DUAL II MAGNUM®, 82.4%) at 525 g ai/h plus atrazine at 560 g ai/h was included as a standard for comparison. […] Thereafter flats were watered and fertilized routinely.

[3] = system: Velvetleaf; test: as above; assay type: in vivo, Abutilon theophrasti; conditions: PRE
Description: as §1

[4] = system: common chickweed; test: Ex14 POST 2,4-DC + bromoxynil, % control 28 DAT, Colby; assay type: in vivo, Stellaria media
Description: (§2) The study further assessed post crop safety on Wheat and Barley.
(§3) Nonionic surfactant at 0.5% (v/v) was included with commercial standards application. No adjuvant was applied with any other treatments. All plant species were direct seeded into 3″ plastic pots using metro-mix as growth media. At treatment application common lambsquarters was 1.75″, common chickweed was 2″, wild mustard was 2.25″, wild oat was 5.5″, wild buckwheat was 2-5″, Italian ryegrass was 2-3″, wheat was 5.5″, and barley was 4.5″ in height. Plants were watered well before application and not watered 24 h after application. Plants were watered and fertilized routinely after treatment application. Each treatment was replicated four times.

[5] = system: weeds; Wheat and Barley; test: Ex14 POST greenhouse; assay type: in vivo; conditions: 28 DAT, rate in the words
Description: as §2, §3

[6] = system: Wild buckwheat; test: Ex11 PRE 2,4-DC + clomazone, % control 28 DAT, Colby; assay type: in vivo, Polygonum convolvulus
Description: The crop tested was Oilseed rape.
Additional treatments included applications of metazachlor (Butisan®, 43.1%) at 750 g ai/ha, napropamide (Devrinol DF®, 50%) at 1260 g, and dimethachlor (Teridox®, 48%) at 1000 g. […] Treatments were applied just after the planting of tall morningglory, wild mustard, common lambsquarters, Italian ryegrass, wild buckwheat, redroot pigweed, common chickweed, corn poppy, and oilseed rape.
Flats were watered and fertilized routinely after treatment application. Each treatment was replicated three times.

[7] = system: Cheat; test: Ex18 PRE 2,4-DC + clomazone, % control 28 DAT, Colby; assay type: in vivo, Bromus secalinus
Description: (§4) Additional treatments included application of metazachlor (Butisan®, 43.1%) at 750 g ai/ha, napropamide (Devrinol DF®, 50%) at 1260 g ai/ha, and dimethachlor (Teridox®, 48%) at 1000 g ai/ha. […] Treatments were applied just after the seeding of annual bluegrass, cheat, wild oat, quackgrass, field violet, blackgrass, littleseed canarygrass, silky windgrass, yellow foxtail, and goosegrass. […] Flats were watered and fertilized routinely after treatment application. Each treatment was replicated three times.

[8] = system: weeds; Sugarcane (var. CTC 20); test: Ex17 PRE greenhouse; assay type: in vivo; conditions: weed and rate in the words
Experimental: (§5) In this example a study was conducted to determine weed efficacy and sugarcane injury when 2,4 DC or isoxaflutole are applied either alone or tank-mix as preemergence against the weeds: Ivyleaf morningglory (Ipomoea hederacea, IPOHE), hairy beggartickss (Bidens pilosa, BIDPI), yellow nutsedge (Cyperus esculentus, CYPES), large crabgrass (Digitaria sanguinalis, DIGSA), and redroot pigweed (Amaranthus retroflexus, AMARE). The crop tested in this study was Sugarcane (var. CTC 20).
(§6) To determine weed efficacy and sugarcane selectivity, 2,4 DC (SC 36%) and isoxaflutole (Balance Flexx®, 20%) were applied PRE either alone or as tank-mix partners at rates mentioned below. 2,4 DC was applied at 500, 750, and 1000 g ai/ha while isoxaflutole was applied at 80, 100, and 120 g ai/ha. […] Treatments were applied PRE to sugarcane (var. CTC 20), ivyleaf morningglory, hairy beggarticks, yellow nutsedge, large crabgrass, and redroot pigweed. Weed species were planted in fiber flats (6″×10″) containing Pennington soil. Soil was watered before application and watered lightly after application. Flats were watered and fertilized routinely after treatment application.

[9] = system: weeds; test: Ex18 PRE greenhouse; assay type: in vivo; conditions: weed and rate in the words
Description: as §4

[10] = system: Blackgrass; test: Ex13 PRE 2,4-DC + diflufenican, % control 28 DAT, Colby; assay type: in vivo, Alopecurus myosuroides
Description: (§7) Pyroxasulfone (KIH-485, 85%) at 74.3 g ai/ha, pendimethalin (Prowl 3.3EC, 37.4%) at 1200 g ai/ha, or a premix of chlorsulfuron plus metsulfuron-methyl (Report Extra, 75%) at 15.8 g ai/ha were applied as commercial standards. […] Treatments were replicated 3 times and flats were watered after planting before the treatment and lightly watered after treatment application. Thereafter flats were watered and fertilized routinely.

[11] = system: Common lambsquarters; test: as above; assay type: in vivo, Chenopodium album
Description: as §7

[12] = system: Wild mustard; test: as above; assay type: in vivo, Sinapis arvensis
Description: as §7

[13] = system: weeds; test: Ex13 PRE greenhouse; assay type: in vivo; conditions: 28 DAT, weed and rate in the words
Description: as §7

[14] = system: weeds; Wheat and canola; test: Ex29 PRE greenhouse; assay type: in vivo; conditions: 28 DAT
Description: The tested weeds include Italian ryegrass (Lolium perenne. multiflorum, LOLMU), wild mustard (Sinapis arvensis, SINAR), annual bluegrass (Poa annua, POAAN), wild oat (Avena fatua, AVEFA), blackgrass (Alopecurus myosuroides, ALOMY), common lambsquarters (Chenopodium album, CHEAL), littleseed canarygrass (Phalaris minor, PHAMI), common chickweed (Stellaria media, STEME), corn poppy (Papaver rhoeas, PAPRH), redroot pigweed (Amaranthus retroflexus, AMARE), silky windgrass (Apera spica-venti, APSEV), wild buckwheat (Polygonum convolvulus, POLCO). The crops teased were Wheat and canola.
Treatments were applied before the emergence of Italian ryegrass, wild oat, wild buckwheat, blackgrass, littleseed canarygrass, common chickweed, common lambsquarters, corn poppy, silky windgrass, redroot pigweed, wild mustard, annual bluegrass, canola, and wheat. […] Flats were watered and fertilized routinely after treatment application.

[15] = system: Ivyleaf morningglory; test: Ex17 PRE 2,4 DC + isoxaflutole, % control 28 DAT, Colby; assay type: in vivo, Ipomoea hederacea
Experimental: as §5
as §6, with “Weed species were planted in fiber flats (6″×10″) containing Pennington soil.” left out

[16] = system: weeds; Sugarcane (CTC20); test: Ex23 PRE greenhouse; conditions: 28 DAT, 85 g ai/ha
Experimental: (Ipomoea spp). The tested crop in this study was Sugarcane (CTC20).
Sugarcane was direct seeded into 6″ plastic pots using 3-4″ sugarcane setts, oriented bud up, with bud leaf shield removed. 2,4 DC and sulfentrazone were applied alone or combined as tank-mix at each rate mentioned below. […] Treatments were replicated 3 times. […] Thereafter flats were watered and fertilized routinely. […] Visual percent sugarcane injury was recorded at 21 and 28 DAT, using a scale of 0 (no injury, observed as bleaching, stunting or necrosis) to 100 (complete plant death).

[17] = system: weeds; Wheat, barley, and oil seed rape (OSR); test: Ex19 PRE greenhouse; assay type: in vivo; conditions: rate in the words
Description: In this study, the crops tested included Wheat, barley, and oil seed rape (OSR).
To determine weed efficacy and wheat, barley or OSR selectivity, 2,4 DC (CS 36.7%) and Diflufenican (CS 19.5%) were applied preemergence either alone or as tank-mix partners at the following rates. 2,4 DC was applied at 125, 170, 210 and 250 g ai/ha while Diflufenican was applied at 50, 75, and 100 g ai/ha. Pyroxasulfone (KIH-485, 85%) at 74.3 g ai/ha, pendimethalin (Prowl 3.3EC, 37.4%) at 1200 g ai/ha, or a premix of chlorsulfuron plus metsulfuron-methyl (Report Extra, 75%) at 15.8 g ai/ha were applied as commercial standards.
Herbicides included as standards for comparison were pyroxasulfone, pendimethalin, and a pre mix of chlorsulfuron plus metsulfuron methyl, all applied at labeled rates as indicated above. Treatments were replicated 3 times. […] Thereafter flats were watered and fertilized routinely.

Compound: Nc1c([N+](=O)[O-])ccc(Oc2ccccc2)c1Cl [Aclonifen, aclonifen]
- weed control in words [1]: alone at all three rates controlled common lambsquarters, quackgrass, redroot pigweed, littleseed canarygrass, annual bluegrass, blackgrass, and shepherd's purse

Compound: CCNc1nc(Cl)nc(NC(C)C)n1 [Atrazine]
- Y ([2]; Atrazine alone 140 g ai/ha): 57%
- Y ([2]; Atrazine alone 280 g ai/ha): 92%
- Y ([2]; Atrazine alone 560 g ai/ha): 97%
- Y (% control, atrazine alone) ([3]; atrazine 140 g ai/ha): 53%
- Y (% control, atrazine alone) ([3]; atrazine 280 g ai/ha): 63%
- Y (% control, atrazine alone) ([3]; atrazine 560 g ai/ha): 96%

Compound: N#Cc1cc(Br)c(O)c(Br)c1 [Bromoxynil, bromoxynil, reference compound]
- Y ([4]; bromoxynil alone 140 g ai/ha): 35%
- Y ([4]; bromoxynil alone 210 g ai/ha): 65%
- Y ([4]; bromoxynil alone 280 g ai/ha): 38%
- weed control / crop safety in words [5]: alone controlled wild buckwheat, wild mustard, and common lambsquarters at all rates and was safe on both crops at all rates

Compound: CC1(C)CON(Cc2ccccc2Cl)C1=O [Clomazone, clomazone, reference compound]
- Y ([6]; clomazone alone 60 g ai/ha): 70%
- Y ([6]; clomazone alone 90 g ai/ha): 80%
- Y ([6]; clomazone alone 120 g ai/ha): 79%
- Y ([7]; clomazone alone 60 g ai/ha): 40%
- Y ([7]; clomazone alone 90 g ai/ha): 75%
- Y ([7]; clomazone alone 120 g ai/ha): 97%
- weed control in words [8]: at 1120 g controlled hairy beggarticks, large crabgrass, and redroot pigweed
- weed control in words [9]: controlled goosegrass at all rates and cheat at 120 g

Compound: O=C(Nc1ccc(F)cc1F)c1cccnc1Oc1cccc(C(F)(F)F)c1 [Diflufenican, diflufenican, reference compound]
- Y ([10]; diflufenican alone 50 g ai/ha): 33%
- Y ([10]; diflufenican alone 75 g ai/ha): 17%
- Y ([10]; diflufenican alone 100 g ai/ha): 27%
- Y ([11]; diflufenican alone 50 g ai/ha): 65%
- Y ([11]; diflufenican alone 75 g ai/ha): 73%
- Y ([11]; diflufenican alone 100 g ai/ha): 85%
- Y ([12]; diflufenican alone 50 g ai/ha): 42%
- Y ([12]; diflufenican alone 75 g ai/ha): 89%
- Y ([12]; diflufenican alone 100 g ai/ha): 100%
- weed control in words [13]: controlled common lambsquarters at 100 g only

Compound: COCCN(C(=O)CCl)c1c(C)cccc1C [Dimethachlor, dimethachlor]
- weed control in words [9]: controlled annual bluegrass, quackgrass, littleseed canarygrass, silky windgrass, yellow foxtail, and goosegrass
- injury to canola ([14]; at 100 g): 18%
- weed control / crop safety in words ([14]; weed, crop, rate in the words): alone provided control of lambsquarters at 1000 g ai/ha

Compound: CS(=O)(=O)c1cc(C(F)(F)F)ccc1C(=O)c1cnoc1C1CC1 [Isoxaflutole, isoxaflutole, reference compound]
- Y ([15]; isoxaflutole alone 80 g ai/ha): 69%
- Y ([15]; isoxaflutole alone 100 g ai/ha): 73%
- Y ([15]; isoxaflutole alone 120 g ai/ha): 81%
- weed control in words [8]: alone at 80 g or higher rates controlled hairy beggarticks, large crabgrass, and redroot pigweed
- sugarcane injury [16]: 12%

Compound: CCC(CC)Nc1c([N+](=O)[O-])cc(C)c(C)c1[N+](=O)[O-] [Pendimethalin, pendimethalin]
- weed control in words [1]: at 784 g gave control of 5 out of 10 weeds
- weed control in words [13]: at 1200 g gave control of 6 out of 10 weeds
- weed control / crop safety in words [17]: controlled corn poppy and field violet and was safe on barley

— US12616203B2, “Use of 3-isoxazolidinones compounds as selective herbicides” (FMC Corporation, priority 2014, dated 2026)
